Results from ChEMBL document CHEMBL5512665, “A CARM1 Inhibitor Potently Suppresses Breast Cancer Both In Vitro and In Vivo” (J Med Chem, 2024).
Calls of active or inactive are those of the source. The calls are words filed in the database; no cut-off is given here.

Key:
[1] = system: BT-474; experiment: Antiproliferative activity against human BT-474 cells assessed as reduction in cell growth incubated for 7 days by celltiter 96 aqueous one solution cell proliferation assay; details: BT-474, 168 h
[2] = system: MCF7; experiment: Antiproliferative activity against human MCF7 cells with siRNA mediated CARM1 knockdown assessed as reduction in cell growth at 5 uM incubated for 7 days by celltiter 96 aqueous one solution cell proliferation assay; format: functional, cell-based; details: time 7.0 day
[3] = system: MCF7; experiment: Induction of cell cycle arrest in human MCF7 cells at 2.5 to 10 uM incubated overnight by propidium iodide staining based flow cytometry; format: functional; details: dose 2.5-10 µM
[4] = system: MCF7; experiment: Antitumor activity against human MCF7 cells xenografted in BALB/C mouse assessed as inhibition of tumor growth at 50 mg/kg,ip administrated every other day for 29 days; format: functional, organism-based; details: time 29.0 day
[5] = system: MCF7; experiment: Antitumor activity against human MCF7 cells xenografted in BALB/C mouse assessed as reduction of tumor weight at 50 mg/kg,ip administrated every other day for 29 days; format: functional, organism-based; details: time 29.0 day
[6] = system: MCF7; experiment: Antitumor activity against human MCF7 cells xenografted in BALB/C mouse assessed as reduction of tumor size at 50 mg/kg,ip administrated every other day for 29 days; format: functional, organism-based; details: time 29.0 day
[7] = Toxicity in BALB/C mouse xenografted with human MCF7 cells assessed as change in body weight at 25 mg/kg,ip administrated every other day for 29 days; format: organism-based; details: in vivo, 696 h, time 29 day
[8] = Toxicity in BALB/C mouse xenografted with human MCF7 cells assessed as change in heart morphology at 25 mg/kg,ip administrated every other day for 29 days; format: organism-based; details: in vivo, 696 h, time 29 day
[9] = Toxicity in BALB/C mouse xenografted with human MCF7 cells assessed as change in heart morphology at 50 mg/kg,ip administrated every other day for 29 days; format: organism-based; details: in vivo, 696 h, time 29 day
[10] = Toxicity in BALB/C mouse xenografted with human MCF7 cells assessed as change in liver morphology at 50 mg/kg,ip administrated every other day for 29 days; format: organism-based; details: in vivo, 696 h, time 29 day
[11] = Toxicity in BALB/C mouse xenografted with human MCF7 cells assessed as change in spleen morphology at 50 mg/kg,ip administrated every other day for 29 days; format: organism-based; details: in vivo, 696 h, time 29 day
[12] = Toxicity in BALB/C mouse xenografted with human MCF7 cells assessed as change in lung morphology at 25 mg/kg,ip administrated every other day for 29 days; format: organism-based; details: in vivo, 696 h, time 29 day
[13] = system: MCF7; experiment: Antitumor activity against human MCF7 cells xenografted in BALB/C mouse assessed as downregulation of N-Myc gene expression at 25 mg/kg,ip administrated every other day for 29 days by RT-qPCR analysis; format: functional, organism-based; details: time 29.0 day
[14] = system: MCF7; experiment: Antitumor activity against human MCF7 cells xenografted in BALB/C mouse assessed as downregulation of GREB1 gene expression at 25 mg/kg,ip administrated every other day for 29 days by RT-qPCR analysis; format: functional, organism-based; details: time 29.0 day
[15] = system: MCF7; experiment: Antitumor activity against human MCF7 cells xenografted in BALB/C mouse assessed as downregulation of GREB1 gene expression at 50 mg/kg,ip administrated every other day for 29 days by RT-qPCR analysis; format: functional, organism-based; details: time 29.0 day
[16] = system: MCF7; experiment: Antitumor activity against human MCF7 cells xenografted in BALB/C mouse assessed as downregulation of PGR gene expression at 50 mg/kg,ip administrated every other day for 29 days by RT-qPCR analysis; format: functional, organism-based; details: time 29.0 day
[17] = system: MCF7; experiment: Antitumor activity against human MCF7 cells xenografted in BALB/C mouse assessed as upregulation of IFIT1 gene expression at 50 mg/kg,ip administrated every other day for 29 days by RT-qPCR analysis; format: functional, organism-based; details: time 29.0 day
[18] = Toxicity in BALB/C mouse xenografted with human MDA-MB-231 cells assessed as change in kidney morphology at 25 mg/kg,ip administrated daily for 11 days; format: organism-based; details: in vivo, 264 h, time 11 day
[19] = system: 4T1; experiment: Antitumor activity against mouse 4T1 cells implanted in BALB/C mouse assessed as inhibition of tumor weight at 25 mg/kg,ip administrated daily for 14 days; format: functional, organism-based; details: time 14.0 day
[20] = system: 4T1; experiment: Antitumor activity against mouse 4T1 cells implanted in BALB/C mouse assessed as inhibition of tumor size at 25 mg/kg,ip administrated daily for 14 days; format: functional, organism-based; details: time 14.0 day
[21] = Toxicity in BALB/C mouse implanted with mouse 4T1 cells assessed as change in body weight at 50 mg/kg,ip administrated daily for 14 days; format: organism-based; details: in vivo, 336 h, time 14 day
[22] = Toxicity in BALB/C mouse implanted with mouse 4T1 cells assessed as change in liver morphology at 50 mg/kg,ip administrated daily for 14 days; format: organism-based; details: in vivo, 336 h, time 14 day
[23] = system: 4T1; experiment: Antitumor activity against mouse 4T1 cells implanted in BALB/C mouse assessed as downregulation of CCND1 gene expression at 25 mg/kg,ip administrated daily for 14 days by RT-qPCR analysis; format: functional, organism-based; details: time 14.0 day
[24] = system: 4T1; experiment: Antitumor activity against mouse 4T1 cells implanted in BALB/C mouse assessed as downregulation of C-Myc gene expression at 50 mg/kg,ip administrated daily for 14 days by RT-qPCR analysis; format: functional, organism-based; details: time 14.0 day
[25] = system: 4T1; experiment: Antitumor activity against mouse 4T1 cells implanted in BALB/C mouse assessed as downregulation of GREB1 gene expression at 25 mg/kg,ip administrated daily for 14 days by RT-qPCR analysis; format: functional, organism-based; details: time 14.0 day
[26] = system: 4T1; experiment: Antitumor activity against mouse 4T1 cells implanted in BALB/C mouse assessed as downregulation of FOXC1 gene expression at 50 mg/kg,ip administrated daily for 14 days by RT-qPCR analysis; format: functional, organism-based; details: time 14.0 day
[27] = system: 4T1; experiment: Antitumor activity against mouse 4T1 cells implanted in BALB/C mouse assessed as upregulation of CCL5 gene expression at 50 mg/kg,ip administrated daily for 14 days by RT-qPCR analysis; format: functional, organism-based; details: time 14.0 day
[28] = system: 4T1; experiment: Antitumor activity against mouse 4T1 cells implanted in BALB/C mouse assessed as upregulation of DDX58 gene expression at 50 mg/kg,ip administrated daily for 14 days by RT-qPCR analysis; format: functional, organism-based; details: time 14.0 day
[29] = system: MCF7; experiment: Synergistic antiproliferative activity against human MCF7 cells assessed as inhibition of cell growth at 2.5 uM incubated for 7 days in presence of tamoxifen by celltiter 96 aqueous one solution cell proliferation assay; format: functional, cell-based; details: time 7.0 day
[30] = system: MCF7; experiment: Synergistic antiproliferative activity against human MCF7 cells assessed as inhibition of colony formation at 2.5 uM incubated for 10 days in presence of fulvestrant by crystal violet staining based analysis; format: functional, cell-based; details: time 10.0 day
[31] = system: MCF7; experiment: Synergistic antiproliferative activity against human MCF7 cells assessed as downregulation of CCND1 gene expression at 2.5 uM incubated for 6 hrs in presence of tamoxifen by RT-qPCR analysis; format: functional, cell-based
[32] = system: MCF7; experiment: Synergistic antiproliferative activity against human MCF7 cells assessed as downregulation of GREB1 gene expression at 2.5 uM incubated for 6 hrs in presence of tamoxifen by RT-qPCR analysis; format: functional, cell-based
[33] = system: MCF7; experiment: Synergistic antiproliferative activity against human MCF7 cells assessed as downregulation of GREB1 gene expression at 2.5 uM incubated for 6 hrs in presence of fulvestrant by RT-qPCR analysis; format: functional, cell-based
[34] = system: MCF7; experiment: Potentiation of etoposide induced antiproliferative activity against human MCF7 cells assessed as upregulation of IFIT1 gene expression at 2.5 uM in presence of etoposide by RT-qPCR analysis; format: functional, cell-based

For `Cc1ccc(-c2nc(N3CCN(CCN(C)C)CC3)ncc2-c2ccoc2)cc1.Cl.Cl`, the EC50 [1] was 2130 nM, the Activity [2] was “inactive” and the Activity [3] was “Active”. For the same molecule, the Activity [4] was “Active”, the Activity [5] was “Active” and the Activity [6] was “Active”. For the same molecule, the Activity [7] was “Non-Toxic”, the Activity [8] was “Non-Toxic” and the Activity [9] was “Non-Toxic”. For the same molecule, the Activity [10] was “Non-Toxic”, the Activity [11] was “Non-Toxic” and the Activity [12] was “Non-Toxic”. For the same molecule, the Activity [13] was “Active”, the Activity [14] was “Active” and the Activity [15] was “Active”. The Activity [16] was “Active”, the Activity [17] was “Active” and the Activity [18] was “Non-Toxic”. For the same molecule, the Activity [19] was “Active”, the Activity [20] was “Active” and the Activity [21] was “Non-Toxic”. For the same molecule, the Activity [22] was “Non-Toxic”, the Activity [23] was “Active” and the Activity [24] was “Active”. The Activity [25] was “Active”, the Activity [26] was “Active” and the Activity [27] was “Active”. The Activity [28] was “Active”, the Activity [29] was “Active” and the Activity [30] was “Active”. For the same molecule, the Activity [31] was “Active”, the Activity [32] was “Active” and the Activity [33] was “Active”. The Activity [34] was “Active”.
